# Test results as given in patent US20260174724A1, “COMPOSITION FOR PREVENTING AND/OR IMPROVING BRAIN DYSFUNCTION” (THE INSTITUTE OF BIOACTIVE PEPTIDES, priority 2024, published 2026).
# Assays:
# [1] = test system: intracerebral hemorrhage (ICH) model of C57BL/6N mice; experiment: Cerebral hematoma experiment: collagenase-induced ICH model, hematoma volume by ImageJ; type: in vivo; details: Day 1 after modeling; gavage 7 days before collagenase; FIG. 3
# From the text: This experiment aims to evaluate the effect of different compositions on the hematoma volume in the intracerebral hemorrhage (ICH) model of C57BL/6N mice. A total of 72 male C57BL/6N mice, aged 8-10 weeks, were randomly divided into 6 groups and treated with gavage for 7 days. Subsequently, except for the sham operation group (CON), the remaining groups were induced the ICH model by collagenase method. […]
# On the 1st and 3rd day after modeling, 6 mice were randomly selected from each group for decapitation and brain sampling. The brain tissue was cut into slices on ice, and the hematoma volume was calculated using ImageJ software.
# [2] = Bioavailability experiment: DHM concentration in plasma after gavage, LC-MS/MS; type: in vivo; details: male SD rats, DHM 100 mg/kg
# Experimental: Experimental subject grouping: 24 male SD rats, weighing between 200-220 g, were randomly divided into four groups.
# • Group A (control group): DHM was administered alone at a dose of 100 mg/kg. • Group B: DHM (100 mg/kg) was co-administered with L-theanine (10 mg/kg). • Group C: DHM (100 mg/kg) was co-administered with taurine (10 mg/kg). • Group D: DHM (100 mg/kg), L-theanine (10 mg/kg), and taurine (10 mg/kg) were co-administered.
# The drug was mixed with 3 mL of 0.5% CMC-Na solution and administered by gavage.
# At 0.1, 0.5, 1, 1.5, 2, 2.5, 3, 4, 6, 8, and 12 h after administration, 200 μL of blood samples were collected through the tail vein and placed in heparinized EP tubes.
# The blood samples were centrifuged at 5000 rpm for 15 min at 4° C., and plasma was collected and stored at −20° C.
# Before analysis, 30 μL of plasma sample was taken, 30 μL of internal standard (rutin) solution and 140 μL of 1% formic acid-acetonitrile solution were added, vortex oscillated for 1 min, centrifuged at 12000 rpm for 5 min, and 150 μL of supernatant was taken for LC-MS/MS analysis. Analysis purpose:
# The concentration of DHM in plasma was determined at different time points to evaluate the effect of the composition on the bioavailability of DHM.
# [3] = simulated gi fluid, 4 h, 1 mg/mL
# Experimental: • Solutions A-D and A1-D1 were prepared according to the following components and concentrations, with a volume of 10 mL each. The mixed solution was placed in a water bath at 37° C., and the content of the remaining DHM was determined by HPLC at different time intervals. • Solution A: SIF+DHM (1 mg/mL); • Solution B: SIF+DHM (1 mg/mL)+taurine (0.3 mg/mL) • Solution C: SIF+DHM (1 mg/mL)+L-theanine (0.4 mg/mL); • Solution D: SIF+DHM (1 mg/mL)+taurine (0.1 mg/mL)+L-theanine (0.1 mg/mL) • Solution A1: SIF+DHM (1 mg/mL)+Fe^3+ (50 μmol/L); • Solution B1: SIF+DHM (1 mg/mL)+taurine (0.3 mg/mL)+Fe^3+ (50 μmol/L); • Solution C1: SIF+DHM (1 mg/mL)+L-theanine (0.4 mg/mL)+Fe^3+ (50 μmol/L); • Solution D1: SIF+DHM (1 mg/mL)+taurine (0.1 mg/mL)+L-theanine (0.1 mg/mL)+Fe^3+ (50 μmol/L).
Structure (SMILES),hematoma volume compared with the MOD group [1],CL [2] [L/h/kg],"AUC(0-inf) ([2]; rat, po) [ng·h/mL]","AUC(0-t) ([2]; rat, po) [ng·h/mL]","Cmax ([2]; rat, po) [ng/mL]","Tmax ([2]; rat, po) [h]","half-life ([2]; rat, po) [h]",remaining amount of DHM [3]
"O=C1c2c(O)cc(O)cc2O[C@H](c2cc(O)c(O)c(O)c2)[C@H]1O [G1 group, dihydromyricetin]",decreased,,,,,,,
"O=C1c2c(O)cc(O)cc2O[C@H](c2cc(O)c(O)c(O)c2)[C@H]1O [DHM, dihydromyricetin]",,517 ± 62.4,194,172,118 ± 13.7,0.83 ± 1.12,1.91 ± 0.67,below 50%
